Laboratory results from patent US4009264A, “Complexes of polysaccharides or derivatives thereof with reduced glutathione and process for preparing said complexes” (Meito Sangyo Kabushiki Kaisha, priority 1975, dated 1977).

Experiments:
[1] = Stability of the thiol group to auto-oxidation: residual ratio of the active SH group (residual activity); format: physicochemical; conditions: 40° C.
Protocol: The residual ratio of the active SH group, or simply called the residual activity, as used in this application is determined as follows:
The complex of this invention and other SH-containing compounds are incubated at a certain termperature in a sodium phosphate buffer (0.1 M, pH 8.0). Aliquotes are withdrawn at intervals and immediately the active SH group contents of the samples are determined. The maximum content obtained is made 100 (%), and the active SH group content of each of the samples is expressed in percentage based on this maximum content.

[2] = Auto-oxidation of other SH-containing compounds in the presence and absence of the complex (amperometric silver titration); format: physicochemical; conditions: 37° C.
Protocol: In these Figures, the axis of abscissa represents the incubating time in minutes, and the axis of ordinates, the SH redidual ratio (%) of the above compounds.
The above residual ratio is measured after dissolving the sample in a sodium phosphate buffer (0.1 m, pH 8.0) in the presence of copper sulfate (5 × 10^-^7 m), and incubating at 37° C. The SH content is measured by an amperometric silver titration.

[3] = tested on: damage of liver induced by D-galactosamine hydrochloride; assay: Prophylactic activity on damage of liver induced by D-galactosamine hydrochloride; format: in vivo, Wister female rats; conditions: administered beforehand; summary of Table 1
Protocol: The damage of liver was induced by administering D-galactosamine hydrochloride.
Wister female rats weighing 100 to 120 g (10 in a group) which had been fasted for 2 hours were used. Three groups were prepared. […] Still another group was administered only with 1 ml. of an isotonic sodium chloride solution. One hour after the administration, a solution obtained by dissolving 50 mg of D-glactosamine hydrochloride in 1 ml. of an isotonic sodium chloride solution and adjusting the pH of the solution to 7.0 with 0.1N sodium hydroxide was administered intraperitoneally.
After a lapse of 22 hours from the administration of D-galactosamine hydrochloride, blood was extracted from the abdominal aorta. GOT, GPT, bilirubin, and glucose in the plasma were measured. Furthermore, the liver was cut out, and its lipid and neutral fat were measured.

[4] = literature report; cited from earlier work

N[C@@H](CCC(=O)N[C@@H](CS)C(=O)NCC(=O)O)C(=O)O [reduced glutathione]
residual ratio of the active SH group (residual activity of the reduced glutathione) ([1]; after 6 hours, sodium phosphate buffer 0.1 M pH 8.0, FeCl3 1.2 × 10^-5 M): about 40% | residual ratio of the active SH group ([1]; after 8 hours, sodium phosphate buffer 0.1 M pH 8.0): about 20% | SH residual ratio of reduced glutathione alone ([2]; 180 minutes, final concentration 1 × 10^-3 M, pH 8.0, copper sulfate 5 × 10^-7 M): about 20% | inhibition of the D-galactosamine-induced increase (GOT, GPT, bilirubin, liver lipid, neutral fat) or decrease (glucose) [3]: inhibited

CC(C)(S)[C@@H](N)C(=O)O [penicillamine]
SH residual ratio of penicillamine alone ([2]; 60 minutes, pH 8.0, copper sulfate 5 × 10^-7 M): about 15%

NCCS [cysteamine]
SH residual ratio of cysteamine alone ([2]; 60 minutes, sodium phosphate buffer pH 8.0, copper sulfate 5 × 10^-7 M): zero

complex of dextran and insulin: literature complex of activated dextran and insulin (Acta Chem. Scand. 25, 1855-1859, 1971)
activity relative to the free insulin [4]: 1/36
